# Measured values as given in US10130611B2, “Use of benzo-heterocycle derivatives for preventing and treating cancer or for inhibiting cancer metastasis” (MEDICINAL BIOCONVERGENCE RESEARCH CENTER, priority 2009, dated 2018).
# Test system: KRS
# Test: Laminin-induced phosphorylation of KRS (immunoblot p-Thr, -Ser, -Tyr)
# Type: cell-based, human
# Conditions: A549 cells transfected with Myc-KRS, inhibitor then laminin
# Procedure: (§1) In FIG. 7, A549 cells were treated with laminin (10 μg/ml), and the levels of 67LR, 37LRP and KRS were determined by western blotting at the indicated times. Hsp90 and cadherin (Cad) were used as markers for cytoplasm and membrane, respectively. In FIG. 8, A549 cells untreated or treated with laminin for 1 hour were subjected to immunofluorescence staining with anti-67LR (MLuC5, Santacruz, sc-59732) (red) and KRS antibodies (green). In FIG. 9, A549 cells were treated with U73122 (U), staurosporin (ST) and LY294002 (LY) that inhibit PLC-gamma, PKC and PI3K, respectively, for 3 hours, and then treated with laminin for 1 hour. Then, it was determined how these kinase inhibitors would affect the cytoplasm and membrane of 67LR and KRS. In FIG. 10, A549 cells were transfected with Myc-KRS, and incubated for 24 hours. Then, the cells were treated with the indicated drugs and then with laminin as above. Myc-KRS was immunoprecipitated, and immunoblotted with anti-p-Thr, -Ser, and -Tyr antibodies. In FIG. 11, A549 cells were transfected with Myc-KRS, and cultured for 24 hours. […] Myc-KRS was immunoprecipitated, and co-precipitation of 67LR was determined by western blotting. […] EPRS (glutamyl-prolyl-tRNA synthetase) was immunoprecipitated with its specific antibody (AbCam), and co-precipitation of KRS was determined by western blotting (upper). […]
row,Structure (SMILES),laminin-induced phosphorylated KRS at threonine and serine
1,CN[C@@H]1C[C@H]2O[C@@](C)([C@@H]1OC)n1c3ccccc3c3c4c(c5c6ccccc6n2c5c31)C(=O)NC4 [staurosporin],did not have any effect

# Test system: A549 cells
# Test: Laminin-dependent membrane translocation of KRS and 67LR with kinase inhibitors
# Type: cell-based, human
# Conditions: inhibitor 3 hours then laminin 1 hour
# Procedure: as §1
row,Structure (SMILES),Laminin-dependent increase of KRS and 67LR in the membrane fraction
1,COc1ccc2c(c1)CC[C@@H]1[C@@H]2CC[C@]2(C)[C@@H](NCCCCCCN3C(=O)C=CC3=O)CC[C@@H]12 [U73122],larger laminin-dependent increase of 67LR than those in the control group
2,CN[C@@H]1C[C@H]2O[C@@](C)([C@@H]1OC)n1c3ccccc3c3c4c(c5c6ccccc6n2c5c31)C(=O)NC4 [staurosporin],larger laminin-dependent increase of 67LR than those in the control group

# Biological target: T1, interaction between KRS and laminin receptor (67LR) (Homo sapiens, UniProt Q15046)
# T1 construct: expressed in transfected cells; host or cells: yeast EGY/SH cells
# T1 sequence (Q15046 whole entry): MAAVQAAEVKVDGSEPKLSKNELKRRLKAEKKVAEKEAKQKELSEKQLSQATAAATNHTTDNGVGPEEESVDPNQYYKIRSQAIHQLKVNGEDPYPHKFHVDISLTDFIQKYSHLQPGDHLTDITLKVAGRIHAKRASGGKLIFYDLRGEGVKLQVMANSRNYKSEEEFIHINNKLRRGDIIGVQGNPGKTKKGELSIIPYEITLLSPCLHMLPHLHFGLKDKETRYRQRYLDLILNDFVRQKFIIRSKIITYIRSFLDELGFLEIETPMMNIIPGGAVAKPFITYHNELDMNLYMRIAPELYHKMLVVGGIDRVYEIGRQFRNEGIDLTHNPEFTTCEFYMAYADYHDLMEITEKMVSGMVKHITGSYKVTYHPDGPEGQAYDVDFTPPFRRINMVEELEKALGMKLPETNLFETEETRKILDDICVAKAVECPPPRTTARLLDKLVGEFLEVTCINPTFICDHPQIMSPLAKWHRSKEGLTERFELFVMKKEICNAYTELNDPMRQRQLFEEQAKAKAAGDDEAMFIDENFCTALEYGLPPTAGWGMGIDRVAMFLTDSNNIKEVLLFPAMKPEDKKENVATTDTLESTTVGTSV
# Test: Yeast two hybrid growth assay, LexA-KRS/B42-LR pair
# Type: cell-based
# Conditions: growth inhibition of yeast EGY/SH cells with LexA-KRS/B42-LR vs control; 1 μl of 10 mg/ml compound per well, 6 days, absorbance 540 nm
# Procedure: On the compound of the present invention obtained by screening a library of compounds, the extent of inhibition on the interaction between KRS and laminin receptor (67LR) was determined by a yeast two hybrid assay, as described below. KRS, LR, AIMP2, AIMP3 and MRS were cloned at LexA vector (clontech) and B42 vector (clontech) each so as to produce required vectors. From among the vectors, LexA-KRS vector and B42-LR vector were co-transformed into yeast EGY/SH cells, and then the yeast cells were diluted to an absorbance (540 nm wavelength) of 0.2 in galactose medium not containing uracil (Ura), histidine (His), tryptophane (Trp) and leucine (Leu), and placed in an amount of 200 u in a 96 well plate. 1 μl of each compound at a concentration of 10 mg/ml was placed in each well, incubated for 6 days, and the absorbance was measured at 540 nm. […] The inhibitory specificity of the selected compound was tested by using two different interaction pairs such as LexA-KRS/B42-AIMP2 and LexA-MRS/B42-AIMP3.
# In order to determine if the compound of the present invention controls the interaction between KRS and laminin receptor, the present inventors determined the interaction between KRS and 67LR through treatment of the compound of the present invention.
row,Inhibition rate(%),Structure (SMILES)
1,59.98,"COc1ccc2oc(NC(=O)c3ccccc3)nc2c1 [Compound of formula 3, N-(5-Methoxy-benzooxazol-2-yl)-benzamide]"

# Same assay, conditions: growth inhibition of yeast EGY/SH cells with LexA-KRS/B42-LR vs control; 1 μl of 10 mg/ml compound per well, 6 days, absorbance 540 nm; read-out: Inhibition rate(%)
row,inhibition at 10000 µg/mL (stock) [%],Structure (SMILES)
1,54.2,"COc1ccc2nc(NC(=O)c3ccccc3)oc2c1 [Compound of formula 2, N-(6-Methoxy-benzooxazol-2-yl)-benzamide]"
2,55.2,"Cc1ccc2oc(-c3ccccc3OCC(=O)O)nc2c1 [Compound of formula 13, [2-(5-Methyl-benzooxazol-2-yl)-phenoxy]-acetic acid]"
3,49.3,"Cc1cc(C)c(-c2nc3cc(N)ccc3o2)c(C)c1 [Compound of formula 14, 2-(2,4,6-Trimethyl-phenyl)-benzooxazol-5-ylamine]"
4,60,"COc1ccc2oc(NC(=O)c3ccccc3)nc2c1 [Compound of formula 10, N-(5-Methoxy-benzooxazol-2-yl)-benzamide]"
5,36.5,"Fc1ccc(CNCc2c[nH]c3ccc(F)cc23)c(Cl)c1 [Compound of formula 17, (2-Chloro-4-fluoro-benzyl)-(5-fluoro-1H-indol-3-ylmethyl)-amine]"
6,36.9,"O=C(Nc1nc2cc([N+](=O)[O-])ccc2o1)c1ccccc1 [Compound of formula 9, N-(5-Nitro-benzooxazol-2-yl)-benzamide]"
7,49.1,"Cc1ccc2oc(NC(=O)c3ccccc3)nc2c1 [Compound of formula 11, N-(5-Methyl-benzooxazol-2-yl)-benzamide]"
8,47.6,"O=[N+]([O-])c1ccc2oc(Nc3ccc(/N=N/c4ccccc4)cc3)nc2c1 [Compound of formula 7, (5-Nitro-benzooxazol-2-yl)-(4-phenylazo-phenyl)-amine]"
9,47.3,"O=C(Nc1nc2ccccc2o1)c1ccccc1 [Compound of formula 8, N-Benzooxazol-2-yl-benzamide]"
10,52.5,"O=C(Nc1nc2ccc([N+](=O)[O-])cc2s1)c1ccc(C(F)(F)F)cc1 [Compound of formula 12, N-(6-Nitro-benzothiazol-2-yl)-4-trifluoromethyl-benzamide]"
11,51.8,"Clc1ccc2oc(Nc3ccccc3)nc2c1 [Compound of formula 4, (5-Chloro-benzooxazol-2-yl)-phenyl-amine]"
12,47.6,"COc1cccc(OC)c1-c1nc2ccccc2s1 [Compound of formula 16, 2-(2,6-Dimethoxy-phenyl)-benzothiazole]"
13,52.8,"Clc1ccc2oc(Nc3ccc(Cl)c(Cl)c3)nc2c1 [Compound of formula 6, (5-Chloro-benzooxazol-2-yl)-(3,4-dichloro-phenyl)-amine]"
14,47.5,"CCc1ccc(Nc2nc3cc(Cl)ccc3o2)cc1 [Compound of formula 5, (5-Chloro-benzooxazol-2-yl)-(4-ethyl-phenyl)-amine]"
